Results on 40 compounds are retold here after ChEMBL document CHEMBL1126955, “Substituted thiopyrano[2,3,4-c,d]indoles as potent, selective, and orally active inhibitors of 5-lipoxygenase. Synthesis and biological evaluation of L-691,816” (J Med Chem, 1993).

Some results are limits rather than exact numbers.

By IC50 is commonly meant the concentration needed to halve the response being measured. A higher IC50 goes with weaker potency. As a reminder, the inhibition is the relative decrease from the control value, in per cent. Read a low inhibition as a weak effect.

Assay [1] addresses T1, Polyunsaturated fatty acid 5-lipoxygenase (Rattus norvegicus, UniProt P12527).
T1 sequence (P12527 whole entry): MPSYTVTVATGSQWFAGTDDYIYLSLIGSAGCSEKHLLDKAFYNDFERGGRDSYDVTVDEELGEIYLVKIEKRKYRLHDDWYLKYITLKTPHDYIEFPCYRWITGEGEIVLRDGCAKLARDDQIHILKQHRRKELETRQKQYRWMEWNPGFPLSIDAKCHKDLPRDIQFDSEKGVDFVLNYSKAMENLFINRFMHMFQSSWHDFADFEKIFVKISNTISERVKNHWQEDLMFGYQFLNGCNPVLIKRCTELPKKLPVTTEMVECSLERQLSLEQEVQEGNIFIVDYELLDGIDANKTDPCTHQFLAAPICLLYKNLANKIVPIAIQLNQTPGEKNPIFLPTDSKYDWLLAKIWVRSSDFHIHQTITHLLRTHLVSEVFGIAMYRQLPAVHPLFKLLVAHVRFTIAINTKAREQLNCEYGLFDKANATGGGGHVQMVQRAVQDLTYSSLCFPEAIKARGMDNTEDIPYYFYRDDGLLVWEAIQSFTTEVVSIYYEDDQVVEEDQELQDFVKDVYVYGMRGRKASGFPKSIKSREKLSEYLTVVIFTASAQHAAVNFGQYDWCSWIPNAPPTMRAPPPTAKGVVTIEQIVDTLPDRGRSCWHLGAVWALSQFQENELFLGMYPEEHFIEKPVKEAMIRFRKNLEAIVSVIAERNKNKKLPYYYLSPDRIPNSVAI
The assay is described as follows: In vitro test for inhibition of 5-lipoxygenase in cell-free preparations from rat PMN leukocytes.

For assay [2], the species on record is Homo sapiens. The assay is described as follows: Tested in vitro for the inhibition of LTB4 biosynthesis in [Ca(2+)]-ionophore-activated human polymorphonuclear leukocytes; (Result of a single titration). It counts as functional.
The target in assay [3] is T2, Polyunsaturated fatty acid 5-lipoxygenase (Homo sapiens, UniProt P09917).
T2 sequence (P09917 whole entry): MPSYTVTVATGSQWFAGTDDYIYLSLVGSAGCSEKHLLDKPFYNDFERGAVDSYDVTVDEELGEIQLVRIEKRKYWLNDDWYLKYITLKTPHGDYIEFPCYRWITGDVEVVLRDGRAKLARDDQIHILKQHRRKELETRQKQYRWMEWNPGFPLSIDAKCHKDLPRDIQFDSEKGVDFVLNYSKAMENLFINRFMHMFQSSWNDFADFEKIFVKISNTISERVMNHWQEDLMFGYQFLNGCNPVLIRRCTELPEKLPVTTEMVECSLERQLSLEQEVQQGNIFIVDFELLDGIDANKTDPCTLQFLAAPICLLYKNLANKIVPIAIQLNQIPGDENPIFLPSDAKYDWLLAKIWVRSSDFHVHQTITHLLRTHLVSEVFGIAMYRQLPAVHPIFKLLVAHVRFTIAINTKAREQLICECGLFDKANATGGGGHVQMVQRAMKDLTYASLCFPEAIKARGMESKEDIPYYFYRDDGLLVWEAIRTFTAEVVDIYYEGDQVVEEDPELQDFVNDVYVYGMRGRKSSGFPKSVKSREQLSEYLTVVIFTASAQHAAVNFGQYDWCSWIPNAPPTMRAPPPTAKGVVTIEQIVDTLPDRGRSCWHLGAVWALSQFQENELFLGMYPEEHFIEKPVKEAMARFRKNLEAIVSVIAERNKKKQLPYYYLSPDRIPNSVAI
The assay is described as follows: In vitro inhibition of LTB4 biosynthesis in [Ca(2+)]-ionophore-activated human polymorphonuclear leukocytes. It counts as functional.

In assay [4] the target is T3, Arachidonate 5-lipoxygenase-activating protein (Homo sapiens, UniProt P20292).
T3 sequence (P20292 whole entry): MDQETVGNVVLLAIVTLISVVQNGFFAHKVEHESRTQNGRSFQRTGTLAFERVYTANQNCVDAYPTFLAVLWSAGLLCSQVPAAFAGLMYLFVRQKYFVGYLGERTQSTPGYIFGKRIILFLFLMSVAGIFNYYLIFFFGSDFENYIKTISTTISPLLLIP
Kind of assay: Tested for inhibition of leukotriene biosynthesis by binding to 5-lipoxygenase activating protein.

Assay [5] deals with T4, Polyunsaturated fatty acid 5-lipoxygenase (Rattus norvegicus) (UniProt P12527).
T4 sequence (whole entry): T1 sequence (P12527 whole entry)
The assay is described as follows: Tested in vitro for the inhibition of 5-lipoxygenase in cell-free preparations from rat PMN leukocytes. Particulars: concentration not given here.

Consider `C[C@H]1Cc2c(OCc3ccc(-c4ccccc4)cn3)ccc3c2c(c(CC(C)(C)C(=O)O)n3Cc2ccc(Cl)cc2)[S+]1[O-]` (some centres undefined), for which the IC50 is 8000 nM in assay [1] and above 2000 nM in assay [2].
Turning to `C[C@@H]1Cc2c(OCc3ccc(-c4ccccc4)cn3)ccc3c2c(c(CC(C)(C)C(=O)O)n3Cc2ccc(Cl)cc2)[S+]1[O-]` (some centres undefined), the IC50 was found to be 330 nM in assay [1] and 830 nM in assay [3].
Taken in the same sequence, the figures for `CC1Cc2c(OCc3cc(-c4ccccc4)ccn3)ccc3c2c(c(CC(C)(C)C(=O)O)n3Cc2ccc(Cl)cc2)S1` (centres undefined) were 2000 nM and 80 nM.
As to `CC1Cc2c(OCc3ccc(-c4ccccc4)cn3)ccc3c2c(c(CC(C)(C)C(=O)O)n3C)S1` (centres undefined), in assay [3], the IC50 amounted to 300 nM.
In the case of `COc1ccc(COc2ccc3c4c2CC(C)Sc4c(CC(C)(C)C(=O)O)n3Cc2ccc(Cl)cc2)nc1` (centres undefined), the IC50 in assay [4] turned out to be 40 nM; in assay [1], 400 nM; in assay [3], 12 nM.
In the case of `CC1Cc2c(OCc3ccc(-c4ccccc4)cn3)ccc3c2c(c(CC(C)(C)CCC(=O)O)n3Cc2ccc(Cl)cc2)S1` (centres undefined), the 50% inhibitory concentration (IC50) in assay [1] amounted to 130 nM; in assay [3], 19 nM.
For `CCCCc1ccc(COc2ccc3c4c2CC(C)Sc4c(CC(C)(C)C(=O)O)n3Cc2ccc(Cl)cc2)nc1` (centres undefined), the results for the IC50 in assay [1] and in assay [3] were 500 nM and 42 nM, respectively.
Take `CC1Cc2c(OCc3ccc(-c4ccccc4)cn3)ccc3c2c(c(CC(C)(C)CC(=O)NS(=O)(=O)C(F)(F)F)n3Cc2ccc(Cl)cc2)S1` (centres undefined): the results for the IC50 in assay [1] and in assay [3] were 67 nM and 125 nM, respectively.
In the case of `CC1Cc2c(OCc3cccc(-c4ccccc4)n3)ccc3c2c(c(CC(C)(C)C(=O)O)n3Cc2ccc(Cl)cc2)S1` (centres undefined), the IC50 was 2500 nM in assay [1] and 27 nM in assay [3].
Taken in the same sequence, the figures for `CCC1Cc2c(OCc3ccc(-c4ccccc4)cn3)ccc3c2c(c(CC(C)(C)C(=O)O)n3Cc2ccc(Cl)cc2)S1` (centres undefined) were 130 nM and 33 nM.
For `CC1Cc2c(OCc3ccc(-c4ccccc4)cn3)ccc3c2c(c(CC(C)(C)C(=O)O)n3Cc2ccc(-c3ccccc3)cn2)S1` (centres undefined) the same measures were 30 nM and 16 nM.
For the compound `CC1Cc2c(OCc3ccc(-c4ccccc4)cc3)ccc3c2c(c(CC(C)(C)C(=O)O)n3Cc2ccc(Cl)cc2)S1` (centres undefined), the IC50 stood at 1000 nM in assay [1] and 165 nM in assay [3].
For `CC1Cc2c(OCc3ccc(-c4ccccc4)cn3)ccc3c2c(c(CCC(C)(C)C(=O)O)n3Cc2ccc(Cl)cc2)S1` (centres undefined), the results for the IC50 in assay [1] and in assay [3] were 330 nM and 23 nM, respectively.
In turn, `CC1Cc2c(OCc3ccc(-c4ccccc4)cn3)ccc3[nH]c(CC(C)(C)C(=O)O)c(c23)S1` (centres undefined) displayed an inhibition in assay [5] of 23%. The compound further registered an IC50 in assay [3] of 500 nM.
Regarding `CC1Cc2c(OCc3ccc(-c4ccccc4)cn3)ccc3c2c(c(CC(C)(C)C(=O)O)n3CCCc2ccccc2)S1` (centres undefined), the IC50 in assay [1] came out at 35 nM; in assay [3], 23 nM.
For `CC1Cc2c(OCc3ccc(-c4ccccc4)cn3)ccc3c2c(c(C(=O)O)n3Cc2ccc(Cl)cc2)S1` (centres undefined) the same measures were 2000 nM and 97 nM.
Taken in the same sequence, the figures for `COc1ccc(Cn2c(CC(C)(C)C(=O)O)c3c4c(c(OCc5ccc(-c6ccccc6)cn5)ccc42)CC(C)S3)cc1` (centres undefined) were 40 nM and 28 nM.
In the case of `CC1Cc2c(OCc3ccc(-c4ccccc4)cn3)ccc3c2c(c(CC(C)(C)C(=O)O)n3Cc2ccc(S(C)(=O)=O)cc2)S1` (centres undefined), the IC50 in assay [1] came to 350 nM; in assay [3], 420 nM.
As to `CC1Cc2c(OCc3ccc(-c4ccccc4)cn3)ccc3c2c(c(CC(C)(C)C(=O)O)n3Cc2ccc(Cl)cc2)S1` (centres undefined), in assay [3], half-maximal inhibition (IC50) was put at 22 nM.
As for `CC1Cc2c(OCc3ccccn3)ccc3c2c(c(CC(C)(C)C(=O)O)n3Cc2ccc(Cl)cc2)S1` (centres undefined), the IC50 in assay [4] is 110 nM; in assay [1] it was 630 nM; in assay [3] it was 35 nM.
For `CC1Cc2c(OCc3ccc(-c4ccccc4)cn3)ccc3c2c(c(CC(=O)O)n3Cc2ccc(Cl)cc2)S1` (centres undefined), the IC50 in assay [1] is 200 nM; in assay [3], 37 nM.
For the compound `CC1Cc2c(OCCc3ccc(-c4ccccc4)cn3)ccc3c2c(c(CC(C)(C)Cc2nnn[nH]2)n3Cc2ccc(Cl)cc2)S1` (centres undefined), the IC50 stood at 1200 nM in assay [1] and 46 nM in assay [3].
For `CC1Cc2c(OCc3ccc(-c4ccccc4)cn3)ccc3c2c(c(CC(C)(C)C(=O)O)n3CC2CCCCC2)S1` (centres undefined) the same measures were 35 nM and 33 nM.
Consider `CC1Cc2c(OCc3ccc(-c4ccccc4)cn3)ccc3c2c(c(CC(C)(C)C(=O)O)n3C(=O)c2ccccc2)S1` (centres undefined), for which the IC50 in assay [1] was found to be 140 nM; in assay [2], 60 nM.
For `CC1Cc2c(OCc3ccc(-c4ccccc4)cn3)ccc3c2c(c(CC(C)(C)CC(=O)N(C)O)n3Cc2ccc(Cl)cc2)S1` (centres undefined), in assay [2], 500 nM corresponded to half-maximal inhibition (IC50).
Regarding `CC1Cc2c(OCc3ccc(C#N)cn3)ccc3c2c(c(CC(C)(C)C(=O)O)n3Cc2ccc(Cl)cc2)S1` (centres undefined), the IC50 in assay [1] was 350 nM; in assay [3] it was 66 nM.
With `CCCCn1c(CC(C)(C)C(=O)O)c2c3c(c(OCc4ccc(-c5ccccc5)cn4)ccc31)CC(C)S2` (centres undefined), the IC50 was 130 nM in assay [1] and 95 nM in assay [3].
`CC(C)(Cc1c2c3c(c(OCc4ccc(-c5ccccc5)cn4)ccc3n1Cc1ccc(Cl)cc1)CCCS2)C(=O)O`: in assay [5], the inhibition is 20%. Moreover, the midpoint of inhibition in assay [3], the IC50, lay at 160 nM.
Regarding `CC1Cc2c(OCc3ccc(-c4ccccc4)cn3)ccc3c2c(c(CCC(=O)O)n3Cc2ccc(Cl)cc2)S1` (centres undefined), the IC50 in assay [1] was determined as 140 nM; in assay [3], 38 nM.
Regarding `CC1Cc2c(OCc3ccc(-c4ccccc4)cn3)ccc3c2c(c(CC(C)(C)C(=O)O)n3Cc2ccccn2)S1` (centres undefined), the IC50 turned out to be 45 nM in assay [1] and 110 nM in assay [3].
Take `CC1Cc2c(SCc3ccc(-c4ccccc4)cn3)ccc3c2c(c(CC(C)(C)Cc2nnn[nH]2)n3Cc2ccc(Cl)cc2)S1` (centres undefined): the IC50 in assay [1] stood at 120 nM; in assay [3], 11 nM.
Turning to `CC1Cc2c(OCc3ccc4ccccc4n3)ccc3c2c(c(CC(C)(C)C(=O)O)n3Cc2ccc(Cl)cc2)S1` (centres undefined), the results for the IC50 in assay [1] and in assay [3] were 600 nM and 3 nM, respectively.
For `CC(C)(Cc1c2c3c(c(OCc4ccc(-c5ccccc5)cn4)ccc3n1Cc1ccc(Cl)cc1)CCS2)C(=O)O` the same measures were 200 nM and 100 nM.
`CC1(C)Cc2c(OCc3ccc(-c4ccccc4)cn3)ccc3c2c(c(CC(C)(C)C(=O)O)n3Cc2ccc(Cl)cc2)S1`: the results for the IC50 in assay [1] and in assay [3] were 3000 nM and 88 nM, respectively.
For `CC1Cc2c(OCc3ccc(-c4ccccc4)cn3)ccc3c2c(c(CC(C)(C)C(=O)O)n3Cc2ccc(Cl)cc2)S1(=O)=O` (centres undefined) the same measures were 320 nM and 210 nM.
In turn, `CC1Cc2c(OCc3ccc(-c4ccccc4)cn3)ccc3c2c(c(CC(C)(C)CC(N)=O)n3Cc2ccc(Cl)cc2)S1` (centres undefined) showed an IC50 in assay [2] of 1500 nM.
With `COc1cccc(Cn2c(CC(C)(C)C(=O)O)c3c4c(c(OCc5ccc(-c6ccccc6)cn5)ccc42)CC(C)S3)c1` (centres undefined), the IC50 stood at 40 nM in assay [1] and 28 nM in assay [3].
Taken in the same sequence, the figures for `CC1Cc2c(OCc3cccs3)ccc3c2c(c(CC(C)(C)C(=O)O)n3Cc2ccc(Cl)cc2)S1` (centres undefined) were 2000 nM and 28 nM.
As to `CC1Cc2c(OCc3cc4ccccc4cn3)ccc3c2c(c(CC(C)(C)C(=O)O)n3Cc2ccc(Cl)cc2)S1` (centres undefined), the IC50 in assay [4] came out at 390 nM; in assay [1], 400 nM; in assay [3], 20 nM.
On to `CSc1c(CC(C)(C)C(=O)O)n(Cc2ccc(Cl)cc2)c2ccc(OCc3ccc(-c4ccccc4)cn3)cc12`, for which the IC50 came to 600 nM in assay [1] and 170 nM in assay [3].
